Laboratory results taken from the NIST ThermoML archive (doi:10.1021/je900105g).
Several values for one entry are separate records, joined by “and”; a condition that tells them apart may be missing. Equal entries are not always repeated. Numbers after ± are expanded uncertainties.

Conditions: Liquid, Buoyancy - hydrostatic balance with magnetic suspension - one sinker

Cc1ccccc1 [toluene]
Conditions | mass density
293.14 K, 580 kPa | 867.3 ± 0.12 kg/m3
293.14 K, 2080 kPa | 868.44 ± 0.12 kg/m3
293.14 K, 2100 kPa | 868.49 ± 0.12 kg/m3
293.14 K, 4080 kPa | 869.92 ± 0.12 kg/m3
293.14 K, 6080 kPa | 871.41 ± 0.12 kg/m3
293.14 K, 8080 kPa | 872.84 ± 0.12 kg/m3
293.14 K, 10080 kPa | 874.27 ± 0.12 kg/m3
293.14 K, 10110 kPa | 874.35 ± 0.12 kg/m3
293.14 K, 15090 kPa | 877.74 ± 0.12 kg/m3
293.14 K, 15110 kPa | 877.83 ± 0.12 kg/m3
293.14 K, 20090 kPa | 881.09 ± 0.12 kg/m3
293.14 K, 20110 kPa | 881.18 ± 0.12 kg/m3
293.14 K, 25090 kPa | 884.33 ± 0.12 kg/m3
293.14 K, 25120 kPa | 884.42 ± 0.12 kg/m3
293.14 K, 30090 kPa | 887.47 ± 0.12 kg/m3
293.14 K, 30120 kPa | 887.56 ± 0.12 kg/m3
293.15 K, 2080 kPa | 868.48 ± 0.12 kg/m3
293.15 K, 4080 kPa | 869.98 ± 0.12 kg/m3
293.15 K, 6080 kPa | 871.45 ± 0.12 kg/m3
293.15 K, 8080 kPa | 872.9 ± 0.12 kg/m3
293.15 K, 10080 kPa | 874.33 ± 0.12 kg/m3
293.15 K, 15080 kPa | 877.8 ± 0.12 kg/m3
293.15 K, 20080 kPa | 881.15 ± 0.12 kg/m3
293.15 K, 25080 kPa | 884.39 ± 0.12 kg/m3
313.14 K, 590 kPa | 848.73 ± 0.12 kg/m3
313.14 K, 2090 kPa | 850.02 ± 0.12 kg/m3
313.14 K, 4090 kPa | 851.7 ± 0.12 kg/m3
313.14 K, 6090 kPa | 853.35 ± 0.12 kg/m3
313.14 K, 8090 kPa | 854.98 ± 0.12 kg/m3
313.14 K, 10090 kPa | 856.57 ± 0.12 kg/m3
313.14 K, 15090 kPa | 860.44 ± 0.12 kg/m3
313.14 K, 20090 kPa | 864.16 ± 0.12 kg/m3
313.14 K, 25090 kPa | 867.74 ± 0.12 kg/m3
333.14 K, 590 kPa | 829.86 ± 0.12 kg/m3
333.14 K, 2090 kPa | 831.32 ± 0.12 kg/m3
333.14 K, 4090 kPa | 833.23 ± 0.12 kg/m3
333.14 K, 6090 kPa | 835.1 ± 0.12 kg/m3
333.14 K, 8090 kPa | 836.93 ± 0.12 kg/m3
333.14 K, 10090 kPa | 838.73 ± 0.12 kg/m3
333.14 K, 15090 kPa | 843.06 ± 0.12 kg/m3
333.14 K, 20090 kPa | 847.2 ± 0.12 kg/m3
333.14 K, 25090 kPa | 851.15 ± 0.12 kg/m3
333.14 K, 30090 kPa | 854.96 ± 0.12 kg/m3
353.14 K, 2090 kPa | 812.26 ± 0.11 kg/m3
353.14 K, 4090 kPa | 814.44 ± 0.11 kg/m3
353.14 K, 6090 kPa | 816.57 ± 0.11 kg/m3
353.14 K, 8090 kPa | 818.63 ± 0.11 kg/m3
353.14 K, 10090 kPa | 820.66 ± 0.11 kg/m3
353.14 K, 15090 kPa | 825.54 ± 0.11 kg/m3
353.14 K, 20090 kPa | 830.16 ± 0.12 kg/m3
353.14 K, 25090 kPa | 834.54 ± 0.12 kg/m3
353.14 K, 30090 kPa | 838.72 ± 0.12 kg/m3
373.15 K, 590 kPa | 790.76 ± 0.11 kg/m3
373.15 K, 2090 kPa | 792.7 ± 0.11 kg/m3 and 792.76 ± 0.11 kg/m3
373.15 K, 4090 kPa | 795.21 ± 0.11 kg/m3 and 795.27 ± 0.11 kg/m3
373.15 K, 6090 kPa | 797.64 ± 0.11 kg/m3 and 797.7 ± 0.11 kg/m3
373.15 K, 8090 kPa | 800 ± 0.11 kg/m3 and 800.07 ± 0.11 kg/m3
373.15 K, 10090 kPa | 802.3 ± 0.11 kg/m3 and 802.37 ± 0.11 kg/m3
373.15 K, 15080 kPa | 807.86 ± 0.11 kg/m3
373.15 K, 15090 kPa | 807.78 ± 0.11 kg/m3
373.15 K, 20080 kPa | 813.03 ± 0.11 kg/m3
373.15 K, 25080 kPa | 817.91 ± 0.11 kg/m3
373.15 K, 30080 kPa | 822.54 ± 0.11 kg/m3
373.49 K, 2100 kPa | 792.38 ± 0.11 kg/m3
373.49 K, 10110 kPa | 802.04 ± 0.11 kg/m3
373.49 K, 15110 kPa | 807.56 ± 0.11 kg/m3
373.49 K, 20120 kPa | 812.74 ± 0.11 kg/m3
373.49 K, 25120 kPa | 817.63 ± 0.11 kg/m3
373.49 K, 30120 kPa | 822.28 ± 0.11 kg/m3
